Literature values in patent publication US12285031B2, “Beverage with collagen and additional additives” (WELLDRINKS LTD, priority 2015, dated 2025).
Square brackets hold non-standard residues; d marks the D form. Peptide text beside a SMILES is read from it. Hyp = O=C(O)[C@@H]1C[C@@H](O)CN1

Experiments:
dermal fibroblasts = conditions: in vitro
[1] = adult humans

O=C(O)CNC(=O)[C@@H]1C[C@@H](O)CN1 [Hyp-Gly, hydroxyprolyl-glycine] (H-[Hyp]-Gly-OH)
cell proliferation of dermal fibroblasts (dermal fibroblasts): enhance cell proliferation

[Mn+2] [Mn, Manganese]
fraction of ingested Mn absorbed [1]: 3-5%

O=C(O)[C@@H]1C[C@@H](O)CN1C(=O)[C@@H]1CCCN1 [Pro-Hyp, prolyl-hydroxyproline] (H-Pro-[Hyp]-OH)
cell proliferation of dermal fibroblasts (dermal fibroblasts): enhance cell proliferation
production of hyaluronic acid by dermal fibroblasts (dermal fibroblasts): enhances
